Measurements reported in patent US5576355A, “Diamondoid derivatives for pharmaceutical use” (priority 1993, dated 1996).
Entries after “also recorded” stand apart in the source; their conditions may differ. Where two headings read alike, the source gives them in different places.

Tests used:
[1] = system: MT-2 cells; assay: MTT dye reduction cytotoxicity assay, 5 days
Protocol: The MT-2 cell line was grown and maintained in RPMI 1640 containing 10% fetal calf serum and antibiotics.
Precisely, when the MT-2 cells were in log phase and 2×10^4 cells were distributed in each well along with separate 100 μl aliquots of diluted test compounds. The test compounds were soluble in ethyl alcohol (EtOH). Ethanol and medium were incubated in some wells with the cells as an ethanol control. A cell control was also included (wells containing only cells and medium). The plates were incubated for 5 days at 37° C. in 5% CO2 and humidified conditions. Cell viability was determined in each well by the MTT assay. The OD570 (optical density at 570 nm) of cells without test compound was taken as 0% killing and was compared to the OD570 of cells with test compound. The toxicity profile for different compounds was then scored. In the MTT dye reduction assay toxicity was indicated as yellow in the wells, with blue color indicating the compound was non-toxic.

[2] = system: AZT resistant strain (AZTR) of HIV-1; assay: Anti-HIV assay (MTT), pre- or post-infection, AZT resistant strain; settings: words
[3] = system: HIV-1/MN; assay: Virus neutralization assay (MTT), HIV-1MN; assay type: cell-based; as to MN Neutralization: key: ++++: significant and reproducible inhibition of cytopathic effect; +++: significant and reproducible inhibition of cytopathic effect; +: noticeable but minimal protection; ---: no protective effect was observed; --: no protective effect was observed; -: no protection was observed but some changes in the cell culture occurred
[4] = system: VP6 primary HIV isolate; assay: Anti-HIV assay (MTT), pre- or post-infection, VP6 isolate; settings: words
[5] = system: HIV-1/MN; assay: Anti-HIV assay (MTT, protection from cytopathic effect), pre- or post-infection, HIV-1/MN; assay type: cell-based; as to MN Post-Infection: key: ++++: significant and reproducible inhibition of cytopathic effect; +++: significant and reproducible inhibition of cytopathic effect; +: noticeable but minimal protection; ---: no protective effect was observed; --: no protective effect was observed; -: no protection was observed but some changes in the cell culture occurred
[6] = system: HIV-1MN induced syncytia; assay: Syncytia inhibition, HIV-1MN
[7] = system: HIV-1; assay: Anti-HIV testing under the rigorous conditions of the examples (strain not stated); settings: high virus load, words
[8] = system: Influenza Viruses; settings: cited from earlier work
[9] = HIV-1/MN, virus pre-mixed with compound 1 hour

## C[N+](C)(C)CC[N+](C)(C)C1C2CC3CC(C2)CC1C3 (stereo not shown) [Compound 4, N-2-adamantyl-N,N,N',N',N'-pentamethyl ethane-1,2-bis ammonium diiodide]
[1]
  Toxicity at 5 μg/ml: -
  Toxicity at 50 μg/ml: -
  Toxicity at 500 μg/ml: -
  Toxicity at .5 μg/ml: -

## O=C1C2CC3C4CC5CC3C1C(C5)C4C2 [Compound 6, 3-diamantanone]
[2]; both pre- and post-infection
  inhibition of virus replication, AZT resistant strains: inhibited virus replication
[2]
  inhibition of AZT resistant isolates: shown to inhibit
[3]
  MN Neutralization: +++
  effect in neutralization assay: effective; also recorded: active
[1]
  Toxicity at 5 μg/ml: -
  Toxicity at 50 μg/ml: -
  Toxicity at .5 μg/ml: -
[4]; both pre- and post-infection
  inhibition of virus replication, VP6 clinical isolates: inhibited virus replication
[4]
  inhibition of clinical isolates: shown to inhibit
[5]
  MN Post-Infection: ++++
  MN Pre-Infection: +++
  effect in both pre-infection and post-infection assays: effective; also recorded: active
  effect in post-infection assay: effective
  effect in pre-infection (pretreatment) assay: effective
[6]; 10 μg/ml, FIG. 2
  inhibition of HIV-1MN induced syncytia at 10 μg/ml: completely inhibit

## O[C@@H]1[C@@H]2C[C@H]3C[C@@H](C2)C2(OCCO2)[C@@H]1C3 (relative stereo) [Compound 8, 4(e)-hydroxy-2-adamantanone ethylene glycol ketal]
[3]
  effect in neutralization assay: effective
[1]
  Toxicity at 5 μg/ml: -
  Toxicity at 50 μg/ml: -
  Toxicity at .5 μg/ml: -
[5]
  MN Post-Infection: -
  effect in pre-infection (pretreatment) assay: effective

## O=C1C2CC3CC1CC(C2)C3=O [adamantane-2,6-dione]
[7]
  activity under the rigorous testing conditions: ineffective

## OC12CC3(O)CC(O)(C1)CC(O)(C2)C3 [Compound 1, 1,3,5,7-tetrahydroxyadamantane]
[3]; neutralization, words
  effect in neutralization assay: effective
[1]
  Toxicity at 5 μg/ml: -
  Toxicity at 50 μg/ml: -
  Toxicity at 500 μg/ml: -
  Toxicity at .5 μg/ml: -
[5]; HIV-1/MN, post-infection
  MN Post-Infection: +++
[5]; HIV-1MN, words
  effect in both pre-infection and post-infection assays: effective
[5]; MN, pre-infection, words
  effect in pre-infection (pretreatment) assay: effective
[5]; post-infection, words
  effect in post-infection assay: effective

## O=C1C2CC3CC(C2)C(=O)C1C3 [Compound 7, 2,4-adamantanedione]
[2]; pre-infection
  inhibition of CPE of HIV, AZT resistant isolate: inhibited CPE of HIV
[2]
  inhibition of AZT resistant isolates: shown to inhibit
[3]; neutralization, words
  effect in neutralization assay: effective
[1]
  Toxicity at 5 μg/ml: -
  Toxicity at 50 μg/ml: -
  Toxicity at 500 μg/ml: -
  Toxicity at .5 μg/ml: -
[4]; pre-infection
  inhibition of CPE of HIV, VP6 isolate: inhibited CPE of HIV
[4]
  inhibition of clinical isolates: shown to inhibit
[5]; HIV-1/MN, post-infection
  MN Post-Infection: -
[5]; MN, pre-infection, words
  effect in pre-infection (pretreatment) assay: effective; also recorded: inhibited viral cytopathic effect
[5]; words
  pretreatment compared with post-infection treatment: pretreatment is more effective than post-infection treatment
[6]; concentration not given
  inhibition of syncytia formation: substantially eliminate syncytia formation

## C[N+](C)(C)CCC[N+](C)(C)C1C2CC3C4CC5CC3C1C(C5)C4C2 (stereo not shown) [Compound 3, N-3-diamantyl-N,N,N',N',N'-pentamethyl propane-1,3-bis ammonium diiodide]
[3]; [9]
  MN Neutralization: +++
[3]; neutralization, words
  effect in neutralization assay: effective
[1]
  Toxicity at 5 μg/ml: -
  Toxicity at 50 μg/ml: -
  Toxicity at .5 μg/ml: -
[5]; HIV-1/MN, post-infection
  MN Post-Infection: +++
[5]; HIV-1MN, words
  effect in both pre-infection and post-infection assays: effective
[5]; MN, pre-infection, words
  effect in pre-infection (pretreatment) assay: effective
[5]; post-infection, words
  effect in post-infection assay: effective

## NC12CC3CC(CC(C3)C1)C2 [Amantadine]
[8]; altering the pH of the endocytic vesicle
  concentration at which viral entry into the cell is non-specifically inhibited: > 0.5 mM
[8]; lower concentration
  concentration of selective strain-specific inhibition of virus assembly: about 5 μM

## O=C1C2CC3CC1CC(O)(C3)C2 [5-hydroxy-2-adamantanone]
[7]
  activity under the rigorous testing conditions: ineffective

## O=C1C2CC3C4CC5CC3C(C2=O)C(C5)C14 [diamantane-3,5-dione]
[7]
  activity under the rigorous testing conditions: ineffective

## O=C(O)CNC1C2CC3CC(C2)CC1C3 (stereo not shown) [Compound 5, N-2-adamantyl glycine]
[3]; [9]
  MN Neutralization: -
[1]
  Toxicity at 5 μg/ml: -
  Toxicity at 50 μg/ml: -
  Toxicity at 500 μg/ml: -
  Toxicity at .5 μg/ml: -
[5]; HIV-1/MN, cells pretreated 1 hour
  MN Pre-Infection: -
[5]; HIV-1/MN, post-infection
  MN Post-Infection: +++
[5]; post-infection, words
  effect in post-infection assay: effective

## O=C1C2CC3CC(C2)CC1C3 [2-adamantanone, reference compound]
[7]
  activity under the rigorous testing conditions: ineffective

## C[N+](C)(C)CCC[N+](C)(C)C1C2CC3CC(C2)CC1C3 (stereo not shown) [N-(2-adamantyl)-N,N,N',N',N'-pentamethyl-propane-1,3-bis ammonium diodide]
[7]
  activity under the rigorous testing conditions: ineffective

## CC12CC3(C)CC(O)(C1)CC(O)(C2)C3 [Compound 2, 1,3-dihydroxy-5,7-dimethyladamantane]
[3]; neutralization, words
  effect in neutralization assay: effective
[1]
  Toxicity at 5 μg/ml: -
  Toxicity at 50 μg/ml: -
  Toxicity at .5 μg/ml: -
[5]; HIV-1/MN, post-infection
  MN Post-Infection: +++
[5]; HIV-1MN, words
  effect in both pre-infection and post-infection assays: effective
[5]; MN, pre-infection, words
  effect in pre-infection (pretreatment) assay: effective
[5]; post-infection, words
  effect in post-infection assay: effective
